Data published in patent US11578130B2, “Regulatable chimeric antigen receptor” (Novartis AG, priority 2013, dated 2023).

How the values were obtained:
[1] = system: influenza vaccine strains; test: Clinical trial: serologic response to 2012 seasonal influenza vaccine, primary endpoint across the 3 vaccine strains (HI GMT ratio); type: in vivo, human; conditions: for primary endpoint of the study (HI GMT ratio versus placebo): ITT population
H3N2 A/Victoria/210/2009 = test: Clinical trial: hemagglutination inhibition titers and seroconversion, vaccine strain A/H3N2; type: in vivo, human
Protocol: (§1) The trial was observer-blind because the placebo in the RAD001 0.5 mg daily and 20 mg weekly cohorts differed slightly from the RAD001 tablets in those cohorts. […] The treatment duration for all cohorts was 6 weeks during which time subjects underwent safety evaluations in the clinic every 2 weeks. After subjects had been dosed for 4 weeks, RAD001 steady state levels were measured pre-dose and at one hour post dose. After completing the 6 week course of study drug, subjects were given a 2 week drug free break to reverse any possible RAD001-induced immunosuppression, and then were given a 2012 seasonal influenza vaccination (Agrippal®, Novartis Vaccines and Diagnostics, Siena, Italy) containing the strains H1N1 A/California/07/2009, H3N2 A/Victoria/210/2009, B/Brisbane/60/2008. Four weeks after influenza vaccination, subjects had serum collected for influenza titer measurements. Antibody titers to the 3 influenza vaccine strains as well as to 2 heterologous strains (A/H1N1 strain A/New Jersey/8/76 and A/H3N2 strain A/Victoria/361/11) were measured by standard hemagglutination inhibition assay (Kendal, A P et al. (1982) Concepts and procedures for laboratory-based influenza surveillance. Atlanta: Centers for Disease Control and Prevention B17-B35).
(§2) The ability of RAD001 to improve immune function in elderly volunteers was evaluated by measuring the serologic response to the 2012 seasonal influenza vaccine. The hemagglutination inhibition (HI) geometric mean titers (GMT) to each of the 3 influenza vaccine strains at baseline and 4 weeks after influenza vaccination are provided in Table 22. The primary analysis variable was the HI GMT ratio (4 weeks post vaccination/baseline). […] This endpoint was chosen because a 1.2-fold increase in the influenza GMT ratio induced by the MF-59 vaccine adjuvant was associated with a decrease in influenza illness (Iob, A et al. (2005) Epidemiol Infect 133:687-693).
(§3) Rates of seroconversion 4 weeks after influenza vaccination were also evaluated. Seroconversion was defined as the change from a negative pre-vaccination titer (i.e., HI titer <1:10) to post-vaccination HI titer ≥1:40 or at least 4-fold increase from a non-negative (≥1:10) pre-vaccination HI titer.

B/Brisbane/60/2008 = test: Clinical trial: hemagglutination inhibition titers and seroconversion, vaccine strain B; type: in vivo, human
Protocol: as §1, §2, §3

[2] = system: Jurkat cells with NFAT-LUC reporter (JNL); test: Activation of CD19 RCAR with extracellular FKBP/FRB switch (half and full switches) by RAD001, NFAT luciferase; type: cell-based; conditions: extracellular half switch 1; 5 nM and 50 nM
Protocol: (§4) The RCAR constructs were expressed in a Jurkat reporter cell line. Jurkat cells with NFAT-LUC reporter (JNL) were grown to the density of 0.5×10^6/ml in Jurkat cell growth media with puromycin at 0.5 μg/ml. For each transfection 2.5×10^6 cells were spin down at 100 g for 10 minutes. Two μg of DNA per RCAR construct were used per transfection. Amaxa Nucleofector solution V and supplement I was mixed and 100 μl was added into the tube with DNA construct. The mixture was then added to the cells and transferred to the electroporation cuvette. Electroporation was done under setting X-001 using Amaxa Nucleofector II Device. 0.5 ml of growth media was added immediately after electroporation and the mixture were transferred into 2 ml growth media in one well of the 6-well plate.
After one hour, RAD001 compound was applied at various concentrations: 0 nM, 0.01 nM, 0.03 nM, 0.1 nM, 0.3 nM, 1 nM, 5 nM, and 50 nM. Tissue culture plate was coated with 5 μg/ml of anti anti-CD19 antibody or isotype control for 2 hrs, blocked with the blocking buffer (DPBS with 5% serum) for 1 hour. The transfected cells with or without Rad001 were resuspended and added to the target plate with 100 μl per well and incubated for 18 hrs. Luciferase One Glo reagent 100 μl was added per well. The samples were incubated for 5 min at 37° C. and then luminescence was measured using Envision plate reader.

[3] = system: Jurkat cells with NFAT-LUC reporter (JNL); test: Activation of RCAR half switches (intracellular FKBP/FRB) by RAD001, NFAT luciferase; type: cell-based; conditions: RCAR half switches with CD27, CD28, ICOS, OX40 or 41BB costimulatory domain; RAD001 50 nM
Protocol: as §4, with “Jurkat” for “The RCAR constructs were expressed in a Jurkat reporter cell line. Jurkat”, “per” for “per RCAR”
After one hour, RAD001 compound was delivered at 50 nM when testing RCARs with different costimulatory signaling domains (FIGS. 44A and 44B), or various concentrations: 0 nM, 0.01 nM, 0.03 nM, 0.1 nM, 0.3 nM, 1 nM, 3 nM, and 10 nM (FIGS. 45A and 45B). Tissue culture plate was coated with 5 μg/ml of anti anti-CD19 antibody or isotype control for 2 hrs, blocked with the blocking buffer (DPBS with 5% serum) for 1 hour. The transfected cells with or without RAD001 were resuspended and added to the target plate with 100 μl per well and incubated for 18 hrs. […] The samples were incubated for 5 min at 37° C. and then luminescence is measured using Envision plate reader.

[4] = Baseline (2 weeks prior to influenza vaccination), RAD001 0.5 mg daily, N = 50
[5] = Baseline (2 weeks prior to influenza vaccination), RAD001 5 mg weekly, N = 49
[6] = Intention to Treat Population, 0.5 mg, N = 48
[7] = Intention to Treat Population, 5 mg, N = 49
[8] = Intention to Treat Population, 20 mg, N = 48
[9] = Subjects with Baseline Titers <=40, 5 mg
[10] = Subjects with Baseline Titers <=40, 20 mg
[11] = Week 4 after influenza vaccination, RAD001 0.5 mg daily, N = 50
[12] = Week 4 after influenza vaccination, RAD001 5 mg weekly, N = 49
[13] = Week 4 after influenza vaccination, RAD001 20 mg weekly, N = 49

CO[C@H]1C[C@@H]2CC[C@@H](C)[C@@](O)(O2)C(=O)C(=O)N2CCCC[C@H]2C(=O)O[C@H]([C@H](C)C[C@@H]2CC[C@@H](OCCO)[C@H](OC)C2)CC(=O)[C@H](C)/C=C(\C)[C@@H](O)[C@@H](OC)C(=O)[C@H](C)C[C@H](C)/C=C/C=C/C=C/1C [RAD001, (1R,9S,12S,15R,16E,18R,19R,21R,23S,24E,26E,28E,30S,32S,35R)-1,18-dihydroxy-12-{(1R)-2-[(1S,3R,4R)-4-(2-hydroxyethoxy)-3-methoxycyclohexyl]-1-methylethyl}-19,30-dimethoxy-15,17,21,23,29,35-hexamethyl-11,36-dioxa-4-aza-tricyclo[30.3.1.04,9]hexatriaconta-16,24,26,28-tetraene-2,3,10,14,20-pentaone]
primary endpoint of the study (HI GMT ratio versus placebo) ([1]; RAD001 0.5 mg daily or 5 mg weekly): met the GMT primary endpoint | primary endpoint of the study (HI GMT ratio versus placebo) ([1]; RAD001 20 mg weekly): but not higher dose (20 mg weekly) cohort met the primary endpoint | increase in influenza titers in subgroup ([1]; human, in vivo): greater RAD001-associated increase in titers than did the ITT population | HI GMT, A/H3N2 (H3N2 A/Victoria/210/2009; [4]): 106.8 | HI GMT, A/H3N2 (H3N2 A/Victoria/210/2009; [5]): 126.04 | HI GMT, A/H3N2 (H3N2 A/Victoria/210/2009; Baseline (2 weeks prior to influenza vaccination), RAD001 20 mg weekly, N = 49): 137.1 | Percent of subjects with seroconversion to influenza 4 weeks after vaccination, H3N2 (H3N2 A/Victoria/210/2009; [6]): 27% | Percent of subjects with seroconversion to influenza 4 weeks after vaccination, H3N2 (H3N2 A/Victoria/210/2009; [7]): 24% | Percent of subjects with seroconversion to influenza 4 weeks after vaccination, H3N2 (H3N2 A/Victoria/210/2009; [8]): 25% | GMT ratio (week 4 post vaccination/baseline), A/H3N2 (H3N2 A/Victoria/210/2009; RAD001 0.5 mg daily, N = 50): 2.1 | GMT ratio (week 4 post vaccination/baseline), A/H3N2 (H3N2 A/Victoria/210/2009; RAD001 5 mg weekly, N = 49): 2.0 | GMT ratio (week 4 post vaccination/baseline), A/H3N2 (H3N2 A/Victoria/210/2009; RAD001 20 mg weekly, N = 49): 2.1 | Percent of subjects with seroconversion to influenza 4 weeks after vaccination, H3N2 (H3N2 A/Victoria/210/2009; Subjects with Baseline Titers <=40, 0.5 mg): 64% | Percent of subjects with seroconversion to influenza 4 weeks after vaccination, H3N2 (H3N2 A/Victoria/210/2009; [9]): 53% | Percent of subjects with seroconversion to influenza 4 weeks after vaccination, H3N2 (H3N2 A/Victoria/210/2009; [10]): 71% | HI GMT, A/H3N2 (H3N2 A/Victoria/210/2009; [11]): 194.4 | HI GMT, A/H3N2 (H3N2 A/Victoria/210/2009; [12]): 223.0 | HI GMT, A/H3N2 (H3N2 A/Victoria/210/2009; [13]): 223.0 | HI GMT, B (B/Brisbane/60/2008; [4]): 44.2 | HI GMT, B (B/Brisbane/60/2008; [5]): 64.8 | Percent of subjects with seroconversion to influenza 4 weeks after vaccination, B (B/Brisbane/60/2008; [6]): 27% | Percent of subjects with seroconversion to influenza 4 weeks after vaccination, B (B/Brisbane/60/2008; [7]): 22% | Percent of subjects with seroconversion to influenza 4 weeks after vaccination, B (B/Brisbane/60/2008; [8]): 19% | GMT ratio (week 4 post vaccination/baseline), B (B/Brisbane/60/2008; RAD001 0.5 mg daily, N = 50): 2.5 | GMT ratio (week 4 post vaccination/baseline), B (B/Brisbane/60/2008; RAD001 5 mg weekly, N = 49): 2.2 | GMT ratio (week 4 post vaccination/baseline), B (B/Brisbane/60/2008; RAD001 20 mg weekly, N = 49): 2.1 | Percent of subjects with seroconversion to influenza 4 weeks after vaccination, B (B/Brisbane/60/2008; Subjects with Baseline Titers <=40, 0.5 mg, * p-value < 0.05 versus placebo): 40* Percent | Percent of subjects with seroconversion to influenza 4 weeks after vaccination, B (B/Brisbane/60/2008; [9]): 33% | Percent of subjects with seroconversion to influenza 4 weeks after vaccination, B (B/Brisbane/60/2008; [10]): 28% | HI GMT, B (B/Brisbane/60/2008; [11]): 98.4 | HI GMT, B (B/Brisbane/60/2008; [12]): 117.3 | HI GMT, B (B/Brisbane/60/2008; [13]): 99.2 | NFAT activity at the higher dosages of RAD001 [2]: no inhibition of activity was observed | target-dependent NFAT activity [3]: all able to activate the target-dependent NFAT activity
